Source: the NIST ThermoML archive (doi:10.1021/acs.jced.5b00451)

Assay: mn = molality of the nth substance listed, in mol/kg
Conditions: 101.33 kPa, Liquid, Vibrating tube method

CCCCCCCCCC[N+](C)(C)C.[Br-] [N,N,N-trimethyl-1-decanaminium bromide] + O
mass density [kg/m3]
Conditions | m1 = 0.01879 | m1 = 0.02836 | m1 = 0.04784 | m1 = 0.05741 | m1 = 0.06268 | m1 = 0.0767 | m1 = 0.08783 | m1 = 0.09727 | m1 = 0.1206 | m1 = 0.1383
293.15 K | 998.685 | 998.921 | 999.399 | 999.635 | 999.765 | 1000.05 | 1000.28 | 1000.47 | 1000.86 | 1001.23
298.15 K | 997.496 | 997.716 | 998.157 | 998.379 | 998.511 | 998.788 | 998.987 | 999.17 | 999.597 | 999.91
303.15 K | 996.082 | 996.312 | 996.748 | 996.949 | 997.055 | 997.334 | 997.534 | 997.707 | 998.105 | 998.375

CCCCCCCCCCCCCCCC[N+](C)(C)C.[Br-] [N,N,N-trimethyl-1-hexadecanaminium bromide] + O
mass density [kg/m3]
Conditions | 293.15 K | 298.15 K | 303.15 K
m1 = 0.00082 | 998.23 | 997.052 | 995.673
m1 = 0.00093 | 998.234 | 997.055 | 995.669
m1 = 0.00104 | 998.238 | 997.058 | 995.669
m1 = 0.00205 | 998.239 | 997.06 | 995.666
m1 = 0.00309 | 998.245 | 997.062 | 995.67
m1 = 0.00411 | 998.243 | 997.065 | 995.678
m1 = 0.00625 | 998.254 | 997.073 | 995.681
m1 = 0.00726 | 998.258 | 997.076 | 995.678
m1 = 0.00801 | 998.255 | 997.076 | 995.687
m1 = 0.00931 | 998.264 | 997.078 | 995.679
m1 = 0.01038 | 998.274 | 997.082 | 995.679
m1 = 0.01139 | 998.276 | 997.089 | 995.693
m1 = 0.01252 | 998.279 | 997.093 | 995.676
m1 = 0.01454 | 998.293 | 997.098 | 995.699
m1 = 0.01561 | 998.296 | 997.105 | 995.676

CCCCCCCCCCCC[N+](C)(C)C.[Br-] [dodecyltrimethylammonium bromide] + O
mass density [kg/m3]
Conditions | 293.15 K | 298.15 K | 303.15 K
m1 = 0.00799 | 998.38 | 997.201 | 995.799
m1 = 0.00998 | 998.422 | 997.244 | 995.839
m1 = 0.01168 | 998.455 | 997.278 | 995.868
m1 = 0.01448 | 998.514 | 997.332 | 995.921
m1 = 0.01695 | 998.566 | 997.376 | 995.96
m1 = 0.01883 | 998.601 | 997.406 | 995.987
m1 = 0.02825 | 998.739 | 997.528 | 996.106
m1 = 0.04703 | 998.998 | 997.783 | 996.34
m1 = 0.09497 | 999.663 | 998.401 | 996.928
m1 = 0.1963 | 1001.05 | 999.701 | 998.119
m1 = 0.301 | 1002.39 | 1000.96 | 999.316

CCCCCC[N+](C)(C)C.[Br-] [hexyltrimethylammonium bromide] + O
mass density [kg/m3]
Conditions | 293.15 K | 298.15 K | 303.15 K
m1 = 0.04932 | 999.719 | 998.528 | 997.065
m1 = 0.07746 | 1000.55 | 999.34 | 997.873
m1 = 0.08812 | 1000.88 | 999.654 | 998.174
m1 = 0.1186 | 1001.76 | 1000.52 | 999.049
m1 = 0.1774 | 1003.49 | 1002.19 | 1000.78
m1 = 0.1855 | 1003.72 | 1002.41 | 1000.97
m1 = 0.2757 | 1006.26 | 1004.93 | 1003.53
m1 = 0.3712 | 1008.99 | 1007.66 | 1006.15
m1 = 0.4703 | 1011.8 | 1010.34 | 1008.8
m1 = 0.5274 | 1013.14 | 1011.76 | 1010.3
m1 = 0.5803 | 1014.75 | 1013.13 | 1011.67
m1 = 0.636 | 1016.19 | 1014.59 | 1013.12

CCCCCCCC[N+](C)(C)C.[Br-] [octyl trimethyl ammonium bromide] + O
mass density [kg/m3]
Conditions | m1 = 0.04535 | m1 = 0.09122 | m1 = 0.1223 | m1 = 0.1444 | m1 = 0.1759 | m1 = 0.1958 | m1 = 0.2338 | m1 = 0.2621 | m1 = 0.2773 | m1 = 0.3003
293.15 K | 999.46 | 1000.72 | 1001.54 | 1002.14 | 1002.97 | 1003.52 | 1004.58 | 1005.29 | 1005.65 | 1006.33
298.15 K | 998.261 | 999.486 | 1000.3 | 1000.84 | 1001.75 | 1002.13 | 1003.15 | 1003.84 | 1004.24 | 1004.76
303.15 K | 996.848 | 998.045 | 998.815 | 999.391 | 1000.2 | 1000.69 | 1001.63 | 1002.32 | 1002.69 | 1003.25

CCCCCCCCCCCCCC[N+](C)(C)C.[Br-] [tetradecyltrimethylammonium bromide] + O
mass density [kg/m3]
Conditions | 293.15 K | 298.15 K | 303.15 K
m1 = 0.00291 | 998.259 | 997.091 | 995.687
m1 = 0.00325 | 998.265 | 997.097 | 995.692
m1 = 0.00379 | 998.273 | 997.103 | 995.706
m1 = 0.00393 | 998.275 | 997.105 | 995.704
m1 = 0.0049 | 998.286 | 997.115 | 995.708
m1 = 0.0065 | 998.302 | 997.127 | 995.727
m1 = 0.00821 | 998.32 | 997.144 | 995.739
m1 = 0.01087 | 998.344 | 997.164 | 995.749
m1 = 0.04969 | 998.72 | 997.499 | 996.055
m1 = 0.09742 | 999.176 | 997.906 | 996.41
m1 = 0.1468 | 999.632 | 998.322 | 996.79
m1 = 0.1955 | 1000.08 | 998.719 | 997.144
m1 = 0.3023 | 1001 | 999.537 | 997.713
